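96-well plates; 48 h exposure; 5 concentrations. Endpoints by linear interpolation between flanking doses. Not reached: highest tested concentration assigned. GI50 is the concentration that inhibits growth by half.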 Activity calls are given as the source filed them. No stated cut-off is given here; in the data, active = GI50 up to about 1.1 µM and inactive = higher.
Columns and labels:
Assay in all cases: NCI-60 cell line screen, 48 h
COLO 205 = tested on: COLO 205
NCI-H23 = tested on: NCI-H23
BT-549 = tested on: BT-549
OVCAR-4 = tested on: OVCAR-4
HL-60 = tested on: HL-60
OVCAR-8 = tested on: OVCAR-8
RPMI-8226 = tested on: RPMI-8226
U-251 = tested on: U-251
UACC-257 = tested on: UACC-257
LOX IMVI = tested on: LOX IMVI
SF-268 = tested on: SF-268
HCC 2998 = tested on: HCC 2998
SNB-75 = tested on: SNB-75
OVCAR-3 = tested on: OVCAR-3
K562 = tested on: K562
SF-295 = tested on: SF-295
TK-10 = tested on: TK-10
EKVX = tested on: EKVX
MDA-N = tested on: MDA-N
UO-31 = tested on: UO-31

Row | SMILES | GI50 (COLO 205) | GI50 (NCI-H23) | GI50 (BT-549) | GI50 (OVCAR-4) | GI50 (HL-60) | GI50 (OVCAR-8) | GI50 (RPMI-8226) | GI50 (U-251) | GI50 (UACC-257) | GI50 (LOX IMVI) | GI50 (SF-268) | GI50 (HCC 2998) | GI50 (SNB-75) | GI50 (OVCAR-3) | GI50 (K562) | GI50 (SF-295) | GI50 (TK-10) | GI50 (EKVX) | GI50 (MDA-N) | GI50 (UO-31)
1 | CC(C)(C)OC(=O)N1C(=O)C2CCCC21 (stereo not drawn) | > 100 µM (inactive) | > 100 µM (inactive) | > 100 µM (inactive) | > 100 µM (inactive) | > 100 µM (inactive) | > 100 µM (inactive) | > 100 µM (inactive) | > 100 µM (inactive) | > 100 µM (inactive) | > 100 µM (inactive) | > 100 µM (inactive) | > 100 µM (inactive) | > 100 µM (inactive) | > 100 µM (inactive) |  |  |  |  |  | 
2 | CC(C)CC1C(=O)OC(C)(C)OC1=O | > 100 µM (inactive) | > 100 µM (inactive) | > 100 µM (inactive) | > 100 µM (inactive) |  | > 100 µM (inactive) | > 100 µM (inactive) | > 100 µM (inactive) | > 100 µM (inactive) | > 100 µM (inactive) | > 100 µM (inactive) | > 100 µM (inactive) | > 100 µM (inactive) | > 100 µM (inactive) | > 100 µM (inactive) | > 100 µM (inactive) | > 100 µM (inactive) | > 100 µM (inactive) | > 100 µM (inactive) | > 100 µM (inactive)
3 | CCCCc1ccc(Nc2cc(=O)n(C)c(=O)[nH]2)cc1 | > 100 µM (inactive) | > 100 µM (inactive) | > 100 µM (inactive) | 32.8 µM (inactive) |  | 57 µM (inactive) | > 100 µM (inactive) | 54.3 µM (inactive) | > 100 µM (inactive) | 39.8 µM (inactive) | 64.4 µM (inactive) | > 100 µM (inactive) | > 100 µM (inactive) | > 100 µM (inactive) | 85.7 µM (inactive) | > 100 µM (inactive) | > 100 µM (inactive) | > 100 µM (inactive) | > 100 µM (inactive) | > 100 µM (inactive)
4 | O=C1C(=C(C(F)(F)Cl)C(F)(F)Cl)C2CCC1C2 (stereo not drawn) | 1.67 µM (inactive) | 1.96 µM (inactive) | 1.58 µM (inactive) | 2.84 µM (inactive) | 0.238 µM (active) | 1.94 µM (inactive) | 0.849 µM (active) | 5.27 µM (inactive) | 1.9 µM (inactive) | 1.33 µM (inactive) | 2.41 µM (inactive) | 5.31 µM (inactive) | 4.3 µM (inactive) | 2.45 µM (inactive) | 0.63 µM (active) | 4.67 µM (inactive) | 1.77 µM (inactive) | > 10 µM (inactive) |  | 2.49 µM (inactive)
5 | N#CC1=C2SCCN2C(=O)C(C#N)C12CCCCC2 (stereo not drawn) | > 100 µM (inactive) | > 100 µM (inactive) | > 100 µM (inactive) | > 100 µM (inactive) |  | > 100 µM (inactive) | > 100 µM (inactive) | > 100 µM (inactive) | > 100 µM (inactive) | > 100 µM (inactive) | > 100 µM (inactive) | > 100 µM (inactive) | > 100 µM (inactive) | > 100 µM (inactive) | > 100 µM (inactive) | > 100 µM (inactive) | > 100 µM (inactive) | > 100 µM (inactive) | > 100 µM (inactive) | > 100 µM (inactive)
6 | COC(=O)C1CC(C=[N+](C)C)=C(SC)N1 (stereo not drawn) | > 100 µM (inactive) | > 100 µM (inactive) | > 100 µM (inactive) | > 100 µM (inactive) |  | > 100 µM (inactive) | > 100 µM (inactive) | > 100 µM (inactive) | > 100 µM (inactive) |  | > 100 µM (inactive) | > 100 µM (inactive) | > 100 µM (inactive) | > 100 µM (inactive) | > 100 µM (inactive) | > 100 µM (inactive) | > 100 µM (inactive) | > 100 µM (inactive) | > 100 µM (inactive) | > 100 µM (inactive)
7 | Cc1ccc(S(=O)(=O)NNC(C[N+](=O)[O-])c2ccccc2)cc1 (stereo not drawn) | 14.4 µM (inactive) | 43 µM (inactive) | 15.6 µM (inactive) | 15.8 µM (inactive) | 3.71 µM (inactive) | 22 µM (inactive) | 3.56 µM (inactive) | 14.5 µM (inactive) | 19.7 µM (inactive) | 3.64 µM (inactive) | 15.3 µM (inactive) | 2.9 µM (inactive) | 22.7 µM (inactive) | 21.7 µM (inactive) | 0.787 µM (active) | 21.3 µM (inactive) | 24.2 µM (inactive) | 75.5 µM (inactive) |  | 22.3 µM (inactive)
8 | CCC1(C)C=Cc2c(cc(O)c3c(=O)c4ccccc4n(C)c23)O1 (stereo not drawn) | > 10 µM (inactive) | > 10 µM (inactive) | > 10 µM (inactive) | > 10 µM (inactive) |  | > 10 µM (inactive) | > 10 µM (inactive) | > 10 µM (inactive) | > 10 µM (inactive) | > 10 µM (inactive) | > 10 µM (inactive) | > 10 µM (inactive) | > 10 µM (inactive) | > 10 µM (inactive) | > 10 µM (inactive) | > 10 µM (inactive) | > 10 µM (inactive) | > 10 µM (inactive) | > 10 µM (inactive) | > 10 µM (inactive)
9 | COC(=O)C(/C(=N\O)C(=O)Nc1cccc(Cl)c1C)c1cnc2ccccc2n1 (stereo not drawn) | > 100 µM (inactive) | > 100 µM (inactive) | > 100 µM (inactive) | > 100 µM (inactive) |  | > 100 µM (inactive) |  | > 100 µM (inactive) | > 100 µM (inactive) | > 100 µM (inactive) | > 100 µM (inactive) | > 100 µM (inactive) | > 100 µM (inactive) | > 100 µM (inactive) | > 100 µM (inactive) | > 100 µM (inactive) | > 100 µM (inactive) | > 100 µM (inactive) | > 100 µM (inactive) | > 100 µM (inactive)
10 | COC(CNC(=O)C(C)NC(=O)C(C)NC(=O)c1ccccc1)OC (stereo not drawn) | > 100 µM (inactive) | > 100 µM (inactive) | > 100 µM (inactive) | > 100 µM (inactive) |  | > 100 µM (inactive) | > 100 µM (inactive) | > 100 µM (inactive) | > 100 µM (inactive) |  | > 100 µM (inactive) |  | > 100 µM (inactive) |  | > 100 µM (inactive) | > 100 µM (inactive) | > 100 µM (inactive) | > 100 µM (inactive) | > 100 µM (inactive) | 
11 | CC(=O)Oc1c(-c2ccccc2)oc2ccccc12 | 1.9 µM (inactive) | 1.77 µM (inactive) | 2.65 µM (inactive) | 3.19 µM (inactive) | 1.12 µM (inactive) | 2.88 µM (inactive) | 0.813 µM (active) | 1.04 µM (active) | 2.59 µM (inactive) | 0.398 µM (active) | 2.28 µM (inactive) | 1.31 µM (inactive) | 1.57 µM (inactive) | 2.12 µM (inactive) | 2.06 µM (inactive) | 0.946 µM (active) | 3.73 µM (inactive) | 2.06 µM (inactive) |  | 1.61 µM (inactive)

Source: ChEMBL document CHEMBL1201862, “PubChem BioAssay data set” (2004)
